From patent publication US4570013A, “Biphenylylalkanoic acid derivatives, methods of preparation and pharmaceutical compositions therefrom” (Dr. L. Zambeletti S.p.A., priority 1983, dated 1986)
Read-outs that look alike come from different tables or passages of the source.

Key:
[1] = system: writhings caused by 2-phenylparabenzoquinone in mice; experiment: writhing test (method of Siegmund), 2-phenylparabenzoquinone, analgesic activity; type: in vivo, Swiss mice; conditions: for ED50: Mus musculus, po; for Contorsions % (change vs controls) / No. Contorsions: orally at ED50: biphenylylacetic acid 12, Ia 32 mg/kg
Excerpt: The analgesic activity has been studied according to the method described by Siegmund (E. Siegmund et al, Proc. Soc. Exptl. Biol. Med., 95, 729 (1957)), according to which the algogenic stimulus consists of the intraperitoneal injection of 2-phenylparabenzoquinone and the algesia manifests itself in repeated abdominal contractions with an extension of the rear limbs and contorsions of the body ("writhing test").

[2] = system: oedema induced in the rats' paw by intradermic injection of carrageenin; experiment: carrageenin-induced paw oedema (method of Winter), antiinflammatory activity; type: in vivo; conditions: Rattus norvegicus, po, os, read-out: Antiinflammatory activity (oedema caused by carrageenin in rats) ED50
[3] = system: Hyperthermia caused by brewer's yeast in rats; experiment: brewer's yeast hyperthermia (method of C. Winter), antipyretic activity; type: in vivo; conditions: for ED50: Rattus norvegicus, po, rats, os, read-out: Antipyretic activity (temperature increase by brewer's yeast, in rats) ED50
Excerpt: The antipyretic activity has been studied according to the method of C. Winter, Toxicol. and Appl. Pharmacol., 5, 247 (1963), in rats, by determining the ability of the substance to reduce the increase of body temperature caused by the subcutaneous administration of brewer's yeast.

[4] = gastrolesive action after single doses; conditions: rat, in vivo, po
in vivo = conditions: rat, po
[5] = read-out: Analgesic activity (against pain caused by 2-phenyl-p-benzo-quinone in mice) ED50

COc1ccc2cc(C(C)C(=O)O)ccc2c1 (stereo not drawn) [Naproxen, 6-methoxy-α-methyl-2-naphthaleneacetic acid, reference compound] gave an ED50 [1, 5] of 20 mg/kg, an ED50 [2] of 24 mg/kg and an ED50 [3] of 112 mg/kg. For the same compound, the TD50 [4] was 17 mg/kg.
In the case of O=C(O)Cc1ccc(-c2ccccc2)cc1 [reference compound], the “Contorsions % (change vs controls)” value ([1]; 5 minutes) was -27%, the “No. Contorsions” value ([1]; 5 minutes) was 33.4 ± 3.0 and the “Contorsions % (change vs controls)” value ([1]; 15 minutes) was -41%. The “No. Contorsions” value ([1]; 15 minutes) was 31.0 ± 4.7, the “Contorsions % (change vs controls)” value ([1]; 30 minutes) was -57% and the “No. Contorsions” value ([1]; 30 minutes) was 21.3 ± 2.6. The “Contorsions % (change vs controls)” value ([1]; 1 hour) was -49%, the “No. Contorsions” value ([1]; 1 hour) was 25.6 ± 2.9 and the “Contorsions % (change vs controls)” value ([1]; 2 hours) was -42%. For the same compound, the “No. Contorsions” value ([1]; 2 hours) was 25.1 ± 2.8, the “Contorsions % (change vs controls)” value ([1]; 3 hours) was -47% and the “No. Contorsions” value ([1]; 3 hours) was 26.0 ± 4.0. For the same compound, the “Contorsions % (change vs controls)” value ([1]; 4 hours) was -28%, the “No. Contorsions” value ([1]; 4 hours) was 34.9 ± 3.6 and the “Contorsions % (change vs controls)” value ([1]; 5 hours) was -1%. The “No. Contorsions” value ([1]; 5 hours) was 45.0 ± 2.3, the ED50 ([1]; mice, orally, read-out: ED50, analgesic activity (writhing test)) was 12 mg/kg and the ED50 [2] was 10.9 mg/kg. For the same compound, the “Temperature change Δt after administration of the substance” value (from here on “Temperature change Δt”) ([3]; 3 mg/kg os, 1 h) was -0.48 °C, the “Temperature after administration of the substance, t” value (“Temperature after administration” for short) ([3]; 3 mg/kg os, 2 h) was 37.81±0.05 °C and the “Temperature change Δt” value ([3]; 3 mg/kg os, 2 h) was -0.65 °C. For the same compound, the “P/S, ratio of protected animals with respect to total screened animals” value (shortened to “P/S, ratio of protected animals”) ([3]; 3 mg/kg os, 3 h) was 2/10, the “Temperature after administration” value ([3]; 3 mg/kg os, 3 h) was 37.69±0.08 °C and the “Temperature change Δt” value ([3]; 3 mg/kg os, 3 h) was -0.70 °C. For the same compound, the “Temperature after administration” value ([3]; 3 mg/kg os, 4 h) was 37.89±0.08 °C, the “Temperature change Δt” value ([3]; 3 mg/kg os, 4 h) was -0.41 °C and the “Temperature after administration” value ([3]; 3 mg/kg os, 5 h) was 38.12±0.13 °C. For the same compound, the “Temperature change Δt” value ([3]; 3 mg/kg os, 5 h) was -0.14 °C, the “Temperature after administration” value ([3]; 3 mg/kg os, 6 h) was 38.19±0.11 °C and the “Temperature change Δt” value ([3]; 3 mg/kg os, 6 h) was -0.05 °C. For the same compound, the “Temperature after administration” value ([3]; 6 mg/kg os, 1 h) was 37.80±0.09 °C, the “Temperature change Δt” value ([3]; 6 mg/kg os, 1 h) was -0.84 °C and the “Temperature after administration” value ([3]; 6 mg/kg os, 2 h) was 37.46±0.09 °C. For the same compound, the “Temperature change Δt” value ([3]; 6 mg/kg os, 2 h) was -1.00 °C, the “P/S, ratio of protected animals” value ([3]; 6 mg/kg os, 3 h) was 5/10 and the “Temperature after administration” value ([3]; 6 mg/kg os, 3 h) was 37.28±0.07 °C. The “Temperature change Δt” value ([3]; 6 mg/kg os, 3 h) was -1.11 °C, the “Temperature after administration” value ([3]; 6 mg/kg os, 4 h) was 37.40±0.09 °C and the “Temperature change Δt” value ([3]; 6 mg/kg os, 4 h) was -0.90 °C. For the same compound, the “Temperature after administration” value ([3]; 6 mg/kg os, 5 h) was 37.65±0.10 °C, the “Temperature change Δt” value ([3]; 6 mg/kg os, 5 h) was -0.63 °C and the “Temperature after administration” value ([3]; 6 mg/kg os, 6 h) was 37.81±0.12 °C. For the same compound, the “Temperature change Δt” value ([3]; 6 mg/kg os, 6 h) was -0.37 °C, the “Temperature after administration” value ([3]; 12 mg/kg os, 1 h) was 37.71±0.08 °C and the “Temperature change Δt” value ([3]; 12 mg/kg os, 1 h) was -0.93 °C. For the same compound, the “Temperature after administration” value ([3]; 12 mg/kg os, 2 h) was 37.33±0.06 °C, the “Temperature change Δt” value ([3]; 12 mg/kg os, 2 h) was -1.13 °C and the “P/S, ratio of protected animals” value ([3]; 12 mg/kg os, 3 h) was 8/10. The “Temperature after administration” value ([3]; 12 mg/kg os, 3 h) was 37.09±0.07 °C, the “Temperature change Δt” value ([3]; 12 mg/kg os, 3 h) was -1.30 °C and the “Temperature after administration” value ([3]; 12 mg/kg os, 4 h) was 37.18±0.07 °C. The “Temperature change Δt” value ([3]; 12 mg/kg os, 4 h) was -1.12 °C, the “Temperature after administration” value ([3]; 12 mg/kg os, 5 h) was 37.43±0.08 °C and the “Temperature change Δt” value ([3]; 12 mg/kg os, 5 h) was -0.93 °C. The “Temperature after administration” value ([3]; 12 mg/kg os, 6 h) was 37.58 °C, the “Temperature change Δt” value ([3]; 12 mg/kg os, 6 h) was -0.66 °C and the ED50 [3] was 6 mg/kg. The TD50 (in vivo) was 16.5 mg/kg.
Work on O=C(Cc1ccc(-c2ccccc2)cc1)Nc1ccccn1 [Diphenpyramide, N-2-pyridinyl-(1,1'-biphenyl)-4-acetamide] yielded an ED50 [1, 5] of 97 mg/kg, an ED50 [2] of 19.9 mg/kg and an ED50 [3] of 22.5 mg/kg. It also gave a TD50 (in vivo) of 76 mg/kg.
